The source of these data is US4904659A, “Substituted quinoline derivatives and pharmaceutical compositions thereof” (Development Finance Corporation of New Zeland, priority 1985, dated 1990).

Molecules are shown by their SMILES. Read-outs that look alike come from different tables or passages of the source.

Data set [1] has as its system L1210 leukemia cells. The experiment in a line: Growth inhibition of cultured L1210 leukemia cells (70 h, counted cell numbers). The format is cell-based. Conditions: Mus musculus, L1210 leukemia cells, 70 h, cell numbers reduced to 50% of controls.
Data set [2] is described as follows: Rm: lipophilic-hydrophilic balance from reversed phase partition chromatography. The format is physicochemical. Conditions: linearly related to 1-octanol/water partition coefficients. The text has this:
Rm-a measure of the compound's liphophilic-hydrophilic balance from reversed phase partition chromatography. Rm is linearly related to partition coefficients obtained in the 1-octanol/water system.

Data set [3] relates to P388 leukemia. Put plainly: In vivo antitumour activity against P388 leukemia (cells inoculated intraperitoneally). More on the design: species or system mice (F1 hybrids of DBA/2J male x C57BL/6J female). Conditions: for P388 in vivo ILS (percentage increase in lifespan) / P388 in vivo Active: P388 leukemia; for P388 in vivo ILS (percentage increase in lifespan): at optimal dose (OD), intraperitoneal, days 1, 5 and 9, control survival 11 days; for P388 in vivo Active: at the stated dose, ILS greater than 20% significant. How it is done:
(§1) OD--The optimal drug dose (in milligrams per kilogram), administered intraperitoneally as a solution in 0.1 ml of 30% v/v ethyl alcohol in water on days 1, 5 and 9 after tumour inoculation. The drug is administered as a soluble acid addition salt.
(§2) ILSmax--The percentage increase in lifespan of treated animals over that of control animals injected with tumour alone. The average survival of control mice was 11 days (for P388 leukemia) and 17 days (for Lewis lung carcinoma) ILS values greater than 20% (P388 leukemia) and 40% (Lewis lung carcinoma) are considered statistically significant. Numbers in parentheses after ILS values indicate the number of long-term survivors (out of a group of 6).
(§3) Y--Implies a significant value of drug activity at the stated dose.
(§4) N--Implies no statistically significant activity.
(§5) Both of these tumour lines were obtained as frozen cell stocks from Mason Research Inc., USA and are passaged intraperitoneally in DBA/25 mice of either sex (P388) or subcutaneously in C57BL/65 mice of either sex (LL) according to the standard methods (Cancer Chemother. Reports., 3, Part 3, p9, 1972).
(§6) Groups of six mice (F1 hybrids of DBA/2J male x C57BL/6J female) were injected intraperitoneally (P388) or intravenously (tail vein, LL), with 10^6 tumour cells on day 0. When given in this manner, P388 cells grow diffusely in the peritoneal cavity, whereas the Lewis lung cells from distinct solid tumour nodules in the lungs. Antitumour activity is determined by published methods (European J. Cancer, 19, pp.1607-1613, 1983).

In data set [4] the test system is Lewis lung carcinoma. The experiment in a line: In vivo antitumour activity against Lewis lung carcinoma (cells inoculated intravenously). Conditions: for LL in vivo ILS (percentage increase in lifespan) / LL in vivo Active: Lewis lung carcinoma; for LL in vivo ILS (percentage increase in lifespan): at optimal dose (OD), intraperitoneal, days 1, 5 and 9, control survival 17 days; for LL in vivo Active: at the stated dose, ILS greater than 40% significant; for LL in vivo number of long-term survivors: number in parentheses after ILS, out of a group of 6, Lewis lung carcinoma. More on the design: species or system mice (F1 hybrids of DBA/2J male x C57BL/6J female). How it is done:
as §1, §2, §3, §4
LL--Is the Lewis lung carcinoma.
as §5, §6

Where [5] appears, read: read-out: In vitro L1210 (IC50).

`CN(C)CCNC(=O)c1cccc2ccc(-c3ccccc3Cl)nc12` [Compound 8]: the IC50 in data set [1] (setting [5]) worked out at 8.1 µM. Further, the chromatographic logP in data set [2] came to 0.15. In data set [3], the “P388 in vivo ILS (percentage increase in lifespan)” value is under 20% and the “P388 in vivo Active” value is on record as “N (Implies no statistically significant activity)”.

As to `COc1cccc(-c2ccc3cccc(C(=O)NCCN(C)C)c3n2)c1` [Compound 11], in data set [1] (setting [5]), the IC50 was 0.86 µM. Further, in data set [3], the “P388 in vivo ILS (percentage increase in lifespan)” value is 46% and the “P388 in vivo Active” value is “Y (Implies a significant value of drug activity at the stated dose)”.

In the case of `COc1ccc(-c2ccc3cccc(C(=O)NCCN(C)C)c3n2)cc1` [Compound 18], in data set [1] (read-out: In vitro L1210 (IC50), cell printed with unit nm), the IC50 stood at 1.29 µM. Further, in data set [2], the chromatographic logP was -0.16. Also, in data set [3], the “P388 in vivo ILS (percentage increase in lifespan)” value amounted to 42% and the “P388 in vivo Active” value is “Y (Implies a significant value of drug activity at the stated dose)”.

Regarding `CN(C)CCNC(=O)c1cccc2ccc(-c3ccc(Cl)cc3)nc12` [Compound 14], in data set [4], the “LL in vivo ILS (percentage increase in lifespan)” value is on record as 91%, the “LL in vivo Active” value is “Y (Implies a significant value of drug activity at the stated dose)” and the “LL in vivo number of long-term survivors” value came out at 4. In data set [1] (setting [5]), the IC50 worked out at 1.17 µM. Further, the chromatographic logP in data set [2] came out at 0.05. In data set [3], the “P388 in vivo ILS (percentage increase in lifespan)” value amounted to 52% and the “P388 in vivo Active” value is on record as “Y (Implies a significant value of drug activity at the stated dose)”.

`CN(C)CCNC(=O)c1cccc2ccc(-c3ccc([N+](=O)[O-])cc3)nc12` [Compound 20]: in data set [4], the “LL in vivo ILS (percentage increase in lifespan)” value turned out to be 85% and the “LL in vivo Active” value is recorded as “Y (Implies a significant value of drug activity at the stated dose)”. In addition, the IC50 in data set [1] (setting [5]) worked out at 0.29 µM. The compound further had a chromatographic logP in data set [2] of -0.18. In data set [3], the “P388 in vivo ILS (percentage increase in lifespan)” value amounted to 71% and the “P388 in vivo Active” value is “Y (Implies a significant value of drug activity at the stated dose)”.

As for `CN(C)CCNC(=O)c1cccc2ccc(-c3ccc(Br)cc3)nc12` [Compound 15], the IC50 in data set [1] (setting [5]) turned out to be 0.6 µM. Besides, in data set [3], the “P388 in vivo ILS (percentage increase in lifespan)” value was 72% and the “P388 in vivo Active” value was “Y (Implies a significant value of drug activity at the stated dose)”.

With `CN(C)CCNC(=O)c1cccc2ccc(-c3ccc(NS(C)(=O)=O)cc3)nc12` [Compound 23], the IC50 in data set [1] (setting [5]) was determined as 1.33 µM. This compound displayed a chromatographic logP in data set [2] of -0.38. In addition, in data set [3], the “P388 in vivo ILS (percentage increase in lifespan)” value is given as under 20% and the “P388 in vivo Active” value is listed as “N (Implies no statistically significant activity)”.

For `CN(C)CCNC(=O)c1cccc2ccc(-c3ccc(-c4ccccc4)cc3)nc12` [Compound 17], the half-inhibitory concentration (IC50) in data set [1] (setting [5]) came out at 1.29 µM. Also, in data set [3], the “P388 in vivo ILS (percentage increase in lifespan)” value is given as under 20% and the “P388 in vivo Active” value is “N (Implies no statistically significant activity)”.

`CC(=O)Nc1ccc(-c2ccc3cccc(C(=O)NCCN(C)C)c3n2)cc1` [Compound 22]: in data set [1] (setting [5]), the IC50 came out at 0.74 µM. In data set [3], the “P388 in vivo ILS (percentage increase in lifespan)” value is under 20% and the “P388 in vivo Active” value is listed as “N (Implies no statistically significant activity)”.

Turning to `CN(C)CCNC(=O)c1cccc2ccc(-c3ccc(I)cc3)nc12` [Compound 16], in data set [3], the “P388 in vivo ILS (percentage increase in lifespan)” value stood at 48% and the “P388 in vivo Active” value was “Y (Implies a significant value of drug activity at the stated dose)”.

As to `CN(C)CCNC(=O)c1cccc2ccc(-c3ccccn3)nc12` [Compound 7], in data set [4], the “LL in vivo ILS (percentage increase in lifespan)” value was 91% and the “LL in vivo Active” value is “Y (Implies a significant value of drug activity at the stated dose)”. Also, in data set [1] (setting [5]), the IC50 was determined as 1.64 µM. In data set [2], this compound had a chromatographic logP of -1.43. In addition, in data set [3], the “P388 in vivo ILS (percentage increase in lifespan)” value is listed as 73% and the “P388 in vivo Active” value is “Y (Implies a significant value of drug activity at the stated dose)”. For the same compound, in data set [3] (number in parentheses after ILS, out of a group of 6, P388 leukemia), the “P388 in vivo number of long-term survivors” value is given as 3.

Regarding `CN(C)CCCCCNC(=O)c1cccc2ccc(-c3ccccc3)nc12` [Compound 4], in data set [4], the “LL in vivo ILS (percentage increase in lifespan)” value is recorded as under 40% and the “LL in vivo Active” value is given as “N (Implies no statistically significant activity)”. Also, the IC50 in data set [1] (setting [5]) worked out at 1.3 µM. This compound also displayed a chromatographic logP in data set [2] of 0.21. In addition, in data set [3], the “P388 in vivo ILS (percentage increase in lifespan)” value is given as under 20% and the “P388 in vivo Active” value is listed as “N (Implies no statistically significant activity)”.

As for `CN(C)CCNC(=O)c1cccc2ccc(-c3ccc(O)cc3)nc12` [Compound 19], the IC50 in data set [1] (setting [5]) amounted to 0.027 µM. The chromatographic logP in data set [2] was -0.33. Also, in data set [3], the “P388 in vivo ILS (percentage increase in lifespan)” value stood at 22% and the “P388 in vivo Active” value is given as “Y (Implies a significant value of drug activity at the stated dose)”.

For `CN(C)CCNC(=O)c1cccc2ccc(-c3cccc(Cl)c3)nc12` [Compound 10], in data set [4], the “LL in vivo ILS (percentage increase in lifespan)” value was under 40% and the “LL in vivo Active” value is on record as “N (Implies no statistically significant activity)”. Moreover, the IC50 in data set [1] (setting [5]) worked out at 1.2 µM. Moreover, in data set [2], the chromatographic logP turned out to be 0.05. In addition, in data set [3], the “P388 in vivo ILS (percentage increase in lifespan)” value was 40% and the “P388 in vivo Active” value is “Y (Implies a significant value of drug activity at the stated dose)”.

`CN(C)CCCCNC(=O)c1cccc2ccc(-c3ccccc3)nc12` [Compound 3]: in data set [4], the “LL in vivo ILS (percentage increase in lifespan)” value stood at 148%, the “LL in vivo Active” value is on record as “Y (Implies a significant value of drug activity at the stated dose)” and the “LL in vivo number of long-term survivors” value is reported as 2. The IC50 in data set [1] (setting [5]) turned out to be 0.68 µM. In data set [2], the chromatographic logP came out at 0.14. Further, in data set [3], the “P388 in vivo ILS (percentage increase in lifespan)” value is 93% and the “P388 in vivo Active” value is “Y (Implies a significant value of drug activity at the stated dose)”.

With `CN(C)CCNC(=O)c1cc([N+](=O)[O-])cc2ccc(-c3ccccc3)nc12` [Compound 26], in data set [3], the “P388 in vivo ILS (percentage increase in lifespan)” value came out at 63% and the “P388 in vivo Active” value is listed as “Y (Implies a significant value of drug activity at the stated dose)”.

Take `CN(C)CCNC(=O)c1cccc2ccc(-c3ccc(F)cc3)nc12` [Compound 13]: in data set [3], the “P388 in vivo ILS (percentage increase in lifespan)” value was under 20% and the “P388 in vivo Active” value is “N (Implies no statistically significant activity)”.

Turning to `CN(C)CCNC(=O)c1cccc2ccc(-c3cccnc3)nc12` [Compound 9], in data set [4], the “LL in vivo ILS (percentage increase in lifespan)” value was found to be 52%, the “LL in vivo Active” value is reported as “Y (Implies a significant value of drug activity at the stated dose)” and the “LL in vivo number of long-term survivors” value was determined as 2. Moreover, the IC50 in data set [1] (setting [5]) was determined as 0.84 µM. For the same compound, in data set [2], the chromatographic logP was -0.58. In addition, in data set [3], the “P388 in vivo ILS (percentage increase in lifespan)” value came out at 58% and the “P388 in vivo Active” value was “Y (Implies a significant value of drug activity at the stated dose)”.

Consider `CN(C)CCCNC(=O)c1cccc2ccc(-c3ccccc3)nc12` [Compound 2], for which, in data set [4], the “LL in vivo ILS (percentage increase in lifespan)” value is under 40% and the “LL in vivo Active” value is recorded as “N (Implies no statistically significant activity)”. The IC50 in data set [1] (setting [5]) was found to be 1.14 µM. Moreover, the chromatographic logP in data set [2] came out at 0.06. In data set [3], the “P388 in vivo ILS (percentage increase in lifespan)” value was 71% and the “P388 in vivo Active” value is given as “Y (Implies a significant value of drug activity at the stated dose)”.

Take `CN(C)CCNC(=O)c1cccc2ccc(-c3ccc(N)cc3)nc12` [Compound 21]: in data set [4], the “LL in vivo ILS (percentage increase in lifespan)” value is listed as 65% and the “LL in vivo Active” value is reported as “Y (Implies a significant value of drug activity at the stated dose)”. Besides, the IC50 in data set [1] (setting [5]) stood at 0.2 µM. This compound had a chromatographic logP in data set [2] of -0.76. Also, in data set [3], the “P388 in vivo ILS (percentage increase in lifespan)” value was 28% and the “P388 in vivo Active” value is “Y (Implies a significant value of drug activity at the stated dose)”.

In the case of `CN(C)CCNC(=O)c1ccc(Cl)c2ccc(-c3ccccc3)nc12` [Compound 25], in data set [3], the “P388 in vivo ILS (percentage increase in lifespan)” value is 63% and the “P388 in vivo Active” value is on record as “Y (Implies a significant value of drug activity at the stated dose)”.

Consider `O=C(NCCNCCO)c1cccc2ccc(-c3ccccc3)nc12` [Compound 5], for which, in data set [3], the “P388 in vivo ILS (percentage increase in lifespan)” value is on record as under 20% and the “P388 in vivo Active” value was “N (Implies no statistically significant activity)”.
